Assay: Odor panel rating of glucose/gluconic acid solutions inoculated with odorous filtrate
Conditions: capped beakers, 40° C., 7 days
Description: Another 250 mL of (4) 10 mM glucose was put it in beaker 4. 20 mg protein/L of carbohydrate oxidase (Microdochium nivale carbohydrate oxidase, Novozymes A/S) was added to beaker 4 and it was kept at a 40° C. for 1 hr. 0.5 mL of odorous 3-day filtrate from the aerobic control in Example 2 was added to all of the beakers. The beaker were capped and placed in a 40° C. water bath for 7 days. At the end of the incubation, a panel smelled the samples as described in Example 1.

## O=C(O)[C@H](O)[C@@H](O)[C@H](O)[C@H](O)CO [Gluconic Acid, gluconic acid]
  formation of odor (in words): will not lead to odorous smell
0.5 mL odorous filtrate added, rating 1 to 5, 5 worst
  Odor Level: 1
